According to US9846160B2, “Ganglioside GD2 as a marker and target on cancer stem cells” (Board of Regents, The University of Texas System, priority 2012, dated 2017):
“Also recorded” adds a separate entry of the source.

What was measured:
[1] = tested on: MDA-MB-231 cells; experiment: Tumor growth inhibition and survival, MDA-MB-231 xenografts; type: in vivo, NOD/SCID mice; conditions: for tumor growth compared to control mice: after 4 weeks; for reduction in tumor volume: in 25% of mice, 0.15 mg/kg/day
Procedure: MDA-MB-231 cells (A) or SUM159 cells (B) (5×10^5/well) of 6 well cell culture dish was treated with 25 nM or 50 nM or 75 nM or 100 nM or 125 nM concentration of Triptolide for 24 hrs. Total RNA was extracted and GD3S expression was measured by real-time RT-PCR. (C) To measure GD2^+ cells growth inhibition, 5×10^5 MDA-MB-231 cells were plated in each well of 6 well cell culture dish and treated with 25 nM or 50 nM or 75 nM or 100 nM or 125 nM concentration of Triptolide for 48 hrs or 72 hrs. After incubation, the cells were detached with trypsin and stained with anti-GD2 antibody and Sytox-Red (for dead cells). The stained cells were analyzed on LSR-II flow cytometer. Absolute number of live cells were calculated by measuring 1000 events for True Count® beads as explained methods. (D) To determine the inhibition of tumor growth, 1×10^6 MDA-MB-231 cells were subcutaneously transplanted into NOD/SCID mice (n=8, 4 mice/group). A group of the mice were treated with 0.15 mg/kg/day of triptolide and the control group was treated with PBS everyday by intra peritoneal injections. At the end of 8 weeks, mice were sacrificed, tumors were dissected out and photographed. (E) Tumors sizes from the mice in experiment in FIG. 6D were measured every week after tumor engraftment and the measurements were shown in a line graph. (F) The survival analysis was based on Kaplan-Myer estimation and groups were compared by the log-rank test. Control (n=4, black line) and Triptolide (n=4, blue line), were analyzed for cumulative survival. Survival was defined as the time (in weeks) from transplant until death. P value represents the statistical significance.
For mRNA analysis 5×10^5 MDA-MB-231 or SUM159 breast cancer cell lines were incubated with triptolide (Alexis Biochemicals, San Diego, Calif.) at 25, 50, 75, 100 and 125 nM concentrations for 24 hrs at 37° C. in six-well cell culture dishes. For the growth inhibition studies, 3×10^5 MDA-MB-231 cells cultured in a 6 well tissue culture dishes were treated with triptolide at specified concentrations for either 24 hrs or 48 hrs. After incubation the cells were detached using trypsin and stained with anti-GD2 antibody (by indirect staining protocol) and pacific-blue conjugated Annexin-V (Invitrogen, Carlsbad, Calif.) following the manufactures instructions. The cells were analyzed in LSR-II flow cytometer (BD). The absolute number of cells were counted by measuring True Count® counting beads (Invitrogen) as per manufacturer's instructions. To examine tumor growth inhibition, survival of murine tumor xenografts was determined by subcutaneous administration of 1×10^6 MDA-MB-231 cells into 8-10 week old NOD/SCID mice. After growing for 2 weeks tumor xenografts reached a size of ˜50 mm^3 Thereafter, Triptolide (0.15 mg/Kg/day) was administered IP into the mice on a daily basis. The mice were sacrificed when the control tumors reached 2 cm or higher following institutional guidelines.
After the tumors reached 50 mm^3, the mice were randomly divided into two groups, and half of the mice treated with triptolide (0.15 mg/kg/day) while the other half were treated with PBS (control mice) every day by intraperitoneal injections. […] Fifty percent of triptolide treated breast tumors were completely tumor free and there was reduction in tumor volume by >8-fold in 25% of mice (FIG. 6D). In addition, tumors in triptolide treated mice were 3-fold smaller in size and 4-fold lighter by weight (FIG. 6E, FIG. 16). […] These findings indicate that […] plays a major role in regulating […] expression and the resulting GD2^+ population. Specifically, it affects cell proliferation and tumor initiation of GD2^+ breast cancer cells and when inhibited, greatly diminishes tumor growth and increases metastasis free survival of breast cancer bearing mice.

[2] = tested on: GD3S mRNA expression; experiment: GD3S mRNA expression by real-time RT-PCR in SUM159 cells; type: cell-based, Human; conditions: Sum159, 125 nM, 24 hr, dose dependent
Procedure: (§1) MDA-MB-231 cells (A) or SUM159 cells (B) (5×10^5/well) of 6 well cell culture dish was treated with 25 nM or 50 nM or 75 nM or 100 nM or 125 nM concentration of Triptolide for 24 hrs. Total RNA was extracted and GD3S expression was measured by real-time RT-PCR. (C) To measure GD2^+ cells growth inhibition, 5×10^5 MDA-MB-231 cells were plated in each well of 6 well cell culture dish and treated with 25 nM or 50 nM or 75 nM or 100 nM or 125 nM concentration of Triptolide for 48 hrs or 72 hrs. After incubation, the cells were detached with trypsin and stained with anti-GD2 antibody and Sytox-Red (for dead cells). The stained cells were analyzed on LSR-II flow cytometer. Absolute number of live cells were calculated by measuring 1000 events for True Count® beads as explained methods. […] (E) Tumors sizes from the mice in experiment in FIG. 6D were measured every week after tumor engraftment and the measurements were shown in a line graph. […] Control (n=4, black line) and Triptolide (n=4, blue line), were analyzed for cumulative survival. […]
(§2) For mRNA analysis 5×10^5 MDA-MB-231 or SUM159 breast cancer cell lines were incubated with triptolide (Alexis Biochemicals, San Diego, Calif.) at 25, 50, 75, 100 and 125 nM concentrations for 24 hrs at 37° C. in six-well cell culture dishes. […] The cells were analyzed in LSR-II flow cytometer (BD). […]

[3] = tested on: MDA-MB-231 cells; experiment: GD2+ cell growth inhibition / apoptosis by flow cytometry after triptolide; type: cell-based, Human
Procedure: as §1, §2

[4] = tested on: GD3S mRNA expression; experiment: GD3S mRNA expression by real-time RT-PCR in MDA-MB-231 cells; type: cell-based, Human
Procedure: as §1, §2

[5] = tested on: GD3S; conditions: melanoma cancer cell line; cited from earlier work
[6] = 0.15 mg/kg/day intraperitoneal, listed as triptolide

CC(C)[C@]12O[C@H]1[C@@H]1O[C@]13[C@]1(O[C@H]1C[C@H]1C4=C(CC[C@@]13C)C(=O)OC4)[C@@H]2O [Triptolide]
treated breast tumors completely tumor free ([1]; 0.15 mg/kg/day intraperitoneal): Fifty
tumors lighter by weight vs control ([1]; 0.15 mg/kg/day intraperitoneal): 4 fold
tumors smaller in size vs control ([1]; 0.15 mg/kg/day intraperitoneal): 3 fold
tumor growth compared to control mice ([1]; 0.15 mg/kg/day intraperitoneal): blocks tumor growth
tumor growth compared to control mice [1, 6]: dramatic decrease in tumor growth
tumor mass ([1]; FIG. 16, p<0.01): reduces tumor mass
reduction in tumor volume ([1]; 0.15 mg/kg/day intraperitoneal): 7- to 8 fold
reduction in tumor volume [1, 6]: > 8 fold
mice in which tumors were eliminated ([1]; intra-peritoneal administration): 50%
survival of treated mice ([1]; repeat experiment, Log-rank control vs triptolide p=0.0015): significantly prolonged survival
inhibition of GD3S mRNA expression [2]: > 95%
decrease of GD2+ cells (absolute cell counts) ([3]; MDA-MB-231, different concentrations, 24 or 48 hours): dose dependent and time dependent decrease of GD2^+ cells
induction of apoptosis ([3]; breast cancer cells / MDA-MB-231): induce apoptosis in MDA-MB-231 cells; also recorded: induced apoptosis in a time dependent manner
inhibition of GD3S mRNA expression ([4]; MDA-MB-231, 125 nM, 24 hr, dose dependent): > 95%
inhibition of GD3S expression ([4]; breast cancer cells, dose dependent manner (summary)): > 95%
inhibition of GD3S [5]: has been shown to inhibit GD3S
